US9365546B2, “Substituted pyridinone-pyridinyl compounds” (CONFLUENCE LIFE SCIENCES INC., priority 2010, dated 2016)
Where “and” joins values, the source holds several entries; their conditions need not be identical. Equal values may be shown once.

Tests used:
p38/MK2 = p38/MK2 (Homo sapiens (Human), UniProt Q16539); test: p38α/MK2 cascade assay (phosphorylation of Hsp27 peptide, Caliper LabChip 3000); assay type: biochemical; settings: activated p38α 20 pM, His6-MK2 1 nM, Hsp27 peptide 1 μM, MgATP 10 μM; two values per cell
Chain of p38/MK2 (Q16539 whole entry): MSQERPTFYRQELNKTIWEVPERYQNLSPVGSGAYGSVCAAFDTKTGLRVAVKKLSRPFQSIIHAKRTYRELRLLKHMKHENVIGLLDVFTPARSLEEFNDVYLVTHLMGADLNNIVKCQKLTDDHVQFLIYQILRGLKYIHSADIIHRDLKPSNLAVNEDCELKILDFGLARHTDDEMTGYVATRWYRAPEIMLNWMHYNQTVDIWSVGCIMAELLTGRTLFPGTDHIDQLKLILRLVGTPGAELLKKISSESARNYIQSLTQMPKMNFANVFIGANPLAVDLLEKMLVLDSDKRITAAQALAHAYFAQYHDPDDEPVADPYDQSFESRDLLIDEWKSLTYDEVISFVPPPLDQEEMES
Chain of p38/MK2 (P49137 whole entry partner): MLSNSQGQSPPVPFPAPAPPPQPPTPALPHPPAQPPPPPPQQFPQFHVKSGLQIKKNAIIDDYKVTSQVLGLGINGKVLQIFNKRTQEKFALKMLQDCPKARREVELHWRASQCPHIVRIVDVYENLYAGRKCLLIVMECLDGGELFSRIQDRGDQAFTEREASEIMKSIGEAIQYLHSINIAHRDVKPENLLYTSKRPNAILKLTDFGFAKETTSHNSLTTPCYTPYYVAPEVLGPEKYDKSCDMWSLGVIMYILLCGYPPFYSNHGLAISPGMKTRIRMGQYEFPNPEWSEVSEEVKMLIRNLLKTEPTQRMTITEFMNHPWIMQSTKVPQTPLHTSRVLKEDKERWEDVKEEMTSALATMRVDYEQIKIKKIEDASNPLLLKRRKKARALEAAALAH
Protocol: P38 Inhibitory Potency and P38/MK2 Substrate Selectivity: The novel, MK2 substrate-selective inhibitory mechanism of compounds is evaluated in enzyme assays comparing inhibitor potency in blocking p38/MK2 versus p38/PRAK induced phosphorylation of an HSP-27 derived peptide substrate. The ability of compounds to inhibit activated phospho-p38α is evaluated using a p38α/MK2 and a p38α/PRAK cascade assay format. […] Activation of MK2 or PRAK by p38α is quantitated by measuring the phosphorylation of a fluorescently-labeled, MK2 specific peptide substrate, Hsp27 peptide ([…]). The phosphorylation of the Hsp27 peptide is quantified using the Caliper LabChip 3000. Kinase reactions is carried out in a 384-well plate (Matrical, MP101-1-PP) in 20 mM HEPES pH 7.5, 10 mM MgCl2, 0.0005% Tween-20, 0.01% BSA, 1 mM DTT, and 2% DMSO. […] The p38α compound inhibitory potency is quantitated from dose-response IC50 values or Ki values from p38α/MK2 cascade assays while the substrate selectivity is calculated as a ratio of p38α/PRAK:p38α/MK2 IC50 values. Species compounds of Formula (I), described hereinabove, evaluated in this assay, are expected to provide a therapeutic benefit in the treatment of p38 kinase mediated diseases, such as autoimmune diseases and lymphoma.

p38/PRAK = p38/PRAK (Homo sapiens (Human), UniProt Q16539); test: p38α/PRAK cascade assay (phosphorylation of Hsp27 peptide, Caliper LabChip 3000); assay type: biochemical; settings: activated p38α 20 pM, GST-PRAK 1 nM, Hsp27 peptide 1 μM, MgATP 10 μM; two values per cell
Chain of p38/PRAK (Q16539 whole entry): as the sequence (Q16539 whole entry) above
Protocol: P38 Inhibitory Potency and P38/MK2 Substrate Selectivity: The novel, MK2 substrate-selective inhibitory mechanism of compounds is evaluated in enzyme assays comparing inhibitor potency in blocking p38/MK2 versus p38/PRAK induced phosphorylation of an HSP-27 derived peptide substrate. The ability of compounds to inhibit activated phospho-p38α is evaluated using a p38α/MK2 and a p38α/PRAK cascade assay format. The kinase activity of p38α is determined by its ability to phosphorylate GST-MK2 or GST-PRAK. Activation of MK2 or PRAK by p38α is quantitated by measuring the phosphorylation of a fluorescently-labeled, MK2 specific peptide substrate, Hsp27 peptide ([…]). The phosphorylation of the Hsp27 peptide is quantified using the Caliper LabChip 3000. Kinase reactions is carried out in a 384-well plate (Matrical, MP101-1-PP) in 20 mM HEPES pH 7.5, 10 mM MgCl2, 0.0005% Tween-20, 0.01% BSA, 1 mM DTT, and 2% DMSO. […] The p38α compound inhibitory potency is quantitated from dose-response IC50 values or Ki values from p38α/MK2 cascade assays while the substrate selectivity is calculated as a ratio of p38α/PRAK:p38α/MK2 IC50 values. Species compounds of Formula (I), described hereinabove, evaluated in this assay, are expected to provide a therapeutic benefit in the treatment of p38 kinase mediated diseases, such as autoimmune diseases and lymphoma.

Row | IC50 (p38/MK2) | IC50 (p38/PRAK) | SMILES
1 | 6.4 nM and 7.3 nM | 138 nM and 144 nM | Cc1cnc(-c2ccnc(C(C)(C)O)n2)cc1-n1c(C)cc(OCc2ccc(F)cc2F)c(Cl)c1=O [Example 284, 3-chloro-4-((2,4-difluorobenzyl)oxy)-2′-(2-(2-hydroxypropan-2-yl)pyrimidin-4-yl)-5′,6-dimethyl-2H-[1,4′-bipyridin]-2-one]
2 | 18 nM and 26 nM | 121 nM and 210 nM | Cc1cnc(-c2ccnc(C(C)(C)C)n2)cc1-n1c(C)cc(OCc2ccc(F)cc2F)c(Cl)c1=O [Example 285, 2′-(2-(tert-butyl)pyrimidin-4-yl)-3-chloro-4-((2,4-difluorobenzyl)oxy)-5′,6-dimethyl-2H-[1,4′-bipyridin]-2-one]
